Data set [1] is described as follows: PET/CT imaging in CAPAN-2-tumour-bearing mice. It counts as in vivo. Conditions: female, athymic nude-Foxn1nu (nu/nu), mouse, iv, total radioactivity, CAPAN-2 xenograft mice, i.v., PET 90 min after injection, mean ± SD (n=33 for -1, n=17 for -2), read-out: Tumour uptake quantified by PET imaging. The procedure: For the cell line-derived model, 1 × 10^6 CAPAN-2 cells were injected subcutaneously into the flanks of female athymic nude-Foxn1nu (nu/nu) mice (Harlan Laboratories). Tumours were allowed to develop until palpable prior to PET imaging. Mice were sacrificed when the tumour mass reached a maximum size of 1500 mm^3 or tumour ulceration was observed, or mice were symptomatic from their tumours which included signs of lethargy, poor grooming, weight loss, and hunching.
PET imaging was performed with a small-animal Argus PET-CT scanner (SEDECAL, Madrid, Spain). PET studies (energy window 250–700 KeV and 30 min static acquisition) and CT studies (voltage 45 kV, current 150 μA, 8 shots, 360 projections, and standard resolution) were performed either at 90 min or at various time points after injection of ^68Ga-DOTA-AF7p or ^89Zr-DFO-LEM2/15, respectively, in mice anesthetized by inhalation of 2–2.5% isoflurane. PET image reconstruction was accomplished using a 2D-OSEM (ordered subset expectation maximization) algorithm (16 subsets and two iterations), with random and scatter correction. […] Tumour-to-blood and tumour-to-background ratios were calculated from %ID/g values in ROIs for the whole tumour, heart (a measure of the blood pool), and brain (for background measurements). Images were analysed with the image analysis software ITK-SNAP [26] […]

Data set [2] is described as follows: PET/CT imaging in heterotopic (subcutaneous) patient-derived xenograft mice. It counts as in vivo, mouse. Particulars: female, athymic nude-Foxn1nu (nu/nu), mouse, total radioactivity, heterotopic PDX mice. From the text:
(§1) PDX models used in this work were established as described by Rubio-Viqueira et al. and Hidalgo et al. using four- to six-week-old female athymic nude-Foxn1nu (nu/nu) mice, purchased from Envigo (Barcelona, Spain). Animals were maintained at the Spanish National Cancer Research Centre (CNIO) Animal Facility (awarded with the AAALAC accreditation). Orthotopic tumours were monitored by ultrasonography, and those implanted into the flanks were allowed to grow to approximately 40 to 200 mm^3 prior to perform PET imaging studies.
(§2) PET imaging was performed with a small-animal Argus PET-CT scanner (SEDECAL, Madrid, Spain). PET studies (energy window 250–700 KeV and 30 min static acquisition) and CT studies (voltage 45 kV, current 150 μA, 8 shots, 360 projections, and standard resolution) were performed either at 90 min or at various time points after injection of ^68Ga-DOTA-AF7p or ^89Zr-DFO-LEM2/15, respectively, in mice anesthetized by inhalation of 2–2.5% isoflurane. PET image reconstruction was accomplished using a 2D-OSEM (ordered subset expectation maximization) algorithm (16 subsets and two iterations), with random and scatter correction. A calibration factor predetermined by scanning a cylindrical phantom containing a known activity of ^68Ga or ^89Zr was used to convert counts per pixel/sec to kBq/cm^3. Manually drawn regions of interest (ROIs) selected from PET images using CT anatomical guidelines were used to determine the mean radiotracer accumulation in units of %ID/g tissue (decay corrected to the time of injection) by dividing the obtained average tracer concentration (kBq/cm^3) in the region by the total ID (injected dose, expressed in kBq). Tumour-to-blood and tumour-to-background ratios were calculated from %ID/g values in ROIs for the whole tumour, heart (a measure of the blood pool), and brain (for background measurements). Images were analysed with the image analysis software ITK-SNAP [26] (http://www.itksnap.org).
(In xenograft studies the graft and the host belong to different species.)

The test system of data set [3] is subcutaneous PDAC patient-derived xenograft. The description is as above. It counts as in vivo, mouse. Conditions: heterotopic PDX mice.
Source text: as §1, §2

Molecules are shown by their SMILES. Where a SMILES comes first, the peptide text is derived from it. The star is where a group is joined. DOTA = O=C(O)CN1CCN(CC(=O)O)CCN(CC(=O)*)CCN(CC(=O)O)CC1

Turning to `CC(C)C[C@H](NC(=O)[C@H](Cc1ccccc1)NC(=O)[C@@H](NC(=O)[C@H](CCCCN)NC(=O)[C@@H](NC(=O)[C@H](CC(N)=O)NC(=O)[C@H](Cc1c[nH]cn1)NC(=O)[C@H](CC(C)C)NC(=O)[C@H](Cc1c[nH]cn1)NC(=O)[C@H](CCCCN)NC(=O)[C@H](Cc1c[nH]c2ccccc12)NC(=O)[C@H](Cc1c[nH]cn1)NC(=O)CN1CCN(CC(=O)O)CCN(CC(=O)O)CCN(CC(=O)O)CC1)[C@@H](C)O)[C@@H](C)O)C(=O)O` [^68Ga-DOTA-AF7p-1, metal not drawn] ({DOTA}-HWKHLHNTKTFL-OH), the tissue uptake at 1.5 h in data set [1] was determined as 0.171 ± 0.095 %ID/g; in data set [2] (kidneys, PET, n=17, read-out: Mean accumulation in kidneys), 4.03 ± 1.73 %ID/g; in data set [2] (liver, PET, n=16, read-out: Mean accumulation in liver), 0.8 ± 0.6 %ID/g; in data set [2] (tumour, PET 90 min after injection, start of the PET study, n=8, read-out: Tumour uptake quantified by PET imaging) it was 0.23 ± 0.085 %ID/g; in data set [2] (tumour, PET 90 min after injection, study day 5, n=8, read-out: Tumour uptake quantified by PET imaging), 0.227 ± 0.142 %ID/g; in data set [2] (tumour, PET 90 min after injection, study day 8, n=6, read-out: Tumour uptake quantified by PET imaging) it was 0.26 ± 0.047 %ID/g. For the same compound, in data set [2] (tumour, PET 90 min after injection, study day 14, n=10, read-out: Tumour uptake quantified by PET imaging), the tissue uptake at 1.5 h was determined as 0.185 ± 0.082 %ID/g. In addition, the “Route of excretion (signals in kidneys and bladder on PET)” value in data set [3] is listed as “mainly excreted through the renal route”.
Turning to `CC(C)C[C@H](NC(=O)[C@H](Cc1ccccc1)NC(=O)[C@@H](NC(=O)[C@H](CCCCN)NC(=O)[C@@H](NC(=O)[C@H](CC(N)=O)NC(=O)[C@H](Cc1c[nH]cn1)NC(=O)[C@H](CC(C)C)NC(=O)[C@H](Cc1c[nH]cn1)NC(=O)[C@H](CCCCNC(=O)CN1CCN(CC(=O)O)CCN(CC(=O)O)CCN(CC(=O)O)CC1)NC(=O)[C@H](Cc1c[nH]c2ccccc12)NC(=O)[C@@H](N)Cc1c[nH]cn1)[C@@H](C)O)[C@@H](C)O)C(=O)O` [^68Ga-DOTA-AF7p-2, metal not drawn] (H-HWK(DOTA)HLHNTKTFL-OH), in data set [1], the tissue uptake at 1.5 h was determined as 0.216 ± 0.095 %ID/g.

The record behind these values is PMC6129362, “MT1-MMP as a PET Imaging Biomarker for Pancreas Cancer Management” (Contrast Media & Molecular Imaging, 2018).
